Source: patent US6867185B2 (Bristol-Myers Squibb Company, priority 2001, dated 2005)
pIC50: −log10 of the molar value. Counter-ions that a name gives are not always drawn.

Experiments:
[1] = target: T1, HCV NS3/4A protease complex, BMS strain (genotype 1a) (Hepatitis C virus genotype 1a, UniProt P27958, C1454S/C1711G); assay: Recombinant HCV NS3/4A protease complex FRET peptide assay (BMS strain); type: biochemical
T1 construct: recombinant HCV NS3/4A protease complex (amino'acids 1027 to 1711); inferred from the pET21b vector and Ni-NTA purification; made in house; host or cells: Escherichia coli BL21 (DE3), pET21b
Procedure, shortened: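 Enzyme was NS3/4A complex (aa 1027-1711) from genotype 1a BMS strain, carrying C1454S and C1711G mutations plus a three-lysine tail, expressed in E. coli and Ni-NTA/size-exclusion purified to >90% purity.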

[2] = target: T2, human liver cathepsin B (Homo sapiens, UniProt P07858); assay: Specificity assay, cathepsin B; type: biochemical; conditions: 2 hr pre-incubation
T2 construct: purchased Sigma; host or cells: human liver (as named)
Experimental: The specificities of compounds of the present invention were determined against a variety of serine proteases: human neutrophil elastase (HNE), porcine pancreatic elastase (PPE) and human pancreatic chymotrypsin and one cysteine protease: human liver cathepsin B. In all cases a 96-well plate format protocol using colorimetric p-nitroaniline (pNA) substrate specific for each enzyme was used as described previously (U.S. Pat. No. 6,323,180) with some modifications to the serine protease assays. All enzymes were purchased from Sigma while the substrates were from Bachem.
Each assay included a 2 hr enzyme-inhibitor pre-incubation at RT followed by addition of substrate and hydrolysis to ˜30% conversion as measured on a Spectramax Pro microplate reader. Compound concentrations varied from 100 to 0.4 μM depending on their potency. […]
The percentage of inhibition was calculated using the formula: [1−((UVinh−UVblank)/(UVctl−UVblank))]×100 […]

T1 sequence (P27958 1027-1711 C1454S/C1711G, one chain of several): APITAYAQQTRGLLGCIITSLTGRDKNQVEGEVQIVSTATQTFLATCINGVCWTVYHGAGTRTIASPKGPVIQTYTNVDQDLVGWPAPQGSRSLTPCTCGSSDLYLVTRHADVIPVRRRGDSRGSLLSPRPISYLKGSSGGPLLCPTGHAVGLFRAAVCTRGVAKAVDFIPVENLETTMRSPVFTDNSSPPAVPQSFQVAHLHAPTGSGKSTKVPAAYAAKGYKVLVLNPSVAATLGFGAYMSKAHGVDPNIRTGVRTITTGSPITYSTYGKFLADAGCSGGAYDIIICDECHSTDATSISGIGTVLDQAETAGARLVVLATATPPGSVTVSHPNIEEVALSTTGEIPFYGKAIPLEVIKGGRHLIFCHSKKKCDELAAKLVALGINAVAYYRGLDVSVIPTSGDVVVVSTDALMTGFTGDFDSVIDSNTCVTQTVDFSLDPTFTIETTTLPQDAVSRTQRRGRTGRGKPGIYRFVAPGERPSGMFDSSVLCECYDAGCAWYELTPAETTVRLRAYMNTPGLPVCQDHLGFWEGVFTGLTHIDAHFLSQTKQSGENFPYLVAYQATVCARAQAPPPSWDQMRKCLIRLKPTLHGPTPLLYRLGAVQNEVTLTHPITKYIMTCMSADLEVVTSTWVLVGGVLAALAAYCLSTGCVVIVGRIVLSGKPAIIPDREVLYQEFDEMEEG

COc1ccc2c(O[C@@H]3C[C@H]4C(=O)N[C@]5(C(=O)NS(=O)(=O)C6CC6)CC5/C=C/CCCC[C@H](N)C(=O)N4C3)cc(-c3ccccc3)nc2c1 (stereo partly drawn) [Compound 6, (1S,4R,6S,13S,17R)-7-trans-Cyclopropanesulfonic acid [13-amino-17-(7-methoxy-2-phenylquinolin-4-yloxy)-2,14-dioxo-3,15-diazatricyclo[13.3.0.0^4,6]octadec-7-ene-4-carbonyl]amide dihydrochloride]
pIC50 ([1]; IC50, HCV NS3/4A protease FRET assay in vitro, IC50 ranges): > 7.30 | pIC50 ([1]; IC50, against the BMS HCV NS3/4A complex): 7.68 | pIC50 [2]: < 4.00
